{"source": "patent US9670217B2", "about": "“Process for preparing chlorins and their pharmaceutical uses” (UNIVERSIDADE DE COIMBRA, priority 2008, dated 2017)", "key": {"[1]": {"system": "A-549 (human non-small cell lung carcinoma)", "assay": "Cell photosensitization, 748 nm diode laser, resazurin", "format": "cell-based", "conditions": "6 J/cm^2 diode laser irradiation at 28.5 mW"}, "[2]": {"assay": "Photobleaching under 748 nm diode laser irradiation", "format": "physicochemical", "conditions": "for t1/2 (photobleaching half-life): 100 mW laser irradiation at 748 nm", "excerpt": "The irradiation of bacteriochlorins in the photobleaching experiments employed the 748 nm Lynx diode laser. For animal studies we employed a costumer-made Hamamatsu diode laser, type LA0873. S/N M070301, which delivered 140 mW at 748 nm. This diode laser was controlled by a ThorLabs 500 mA ACC/APC Laser Diode Controller and in-house electronics. The laser energies of this and the other higher-energy lasers employed in this work were regularly checked with an Ophir model AN/2E laser power meter.\nPhotobleaching experiments were conducted in PBS. PBS:methanol (50:50) and methanol solutions. The solutions were irradiated in a cuvette with an optical path of 1 cm and the Lynx diode laser. The initial absorption of the solutions was ca. 0.8. The mechanism of photobleaching was assessed with the irradiation of the sensitizer using the Hamamatsu diode laser at 80 mW. The sensitizer was irradiated in PBS and in the presence of ascorbic acid or azide.\nThe chemical stability of the compounds was studied exposing them to light, air, and pH changes. The most significant degradation occurs for aerated solutions irradiated by light of the appropriate wavelength. In such circumstances the photobleaching of the compounds follows a first-order rate and is proportional to the energy of the incident laser light. In general, it was also observed that the photobleaching rate increases with the amount of water present in the solution. Bennett reported the photoconversion of Foscan® (m-THPC) and of the analogous bacteriochlorin (m-THPB) in PBS:methanol (50:50). Scherz reported the photoconversion of Tookad® in acetone and Triton-X:PBS [3]. For the purpose of comparing the photostability of Luzitins with that of Foscan® and Tookad®, we present in Table 2 the half-lives (t1/2) of representative drugs described herein, together with those of Foscan and Tookad® normalized for a laser power of 100 mW.\nLuzitin-FMet was dissolved in PBS:methanol (2:3), transferred to a 1 cm quartz cell and its absorption spectrum was registered, FIG. 6. The quartz cell was then placed in the beam of the 748 nm Lynx diode laser, previously unfocused to have a beam diameter coincident with the window of the quartz cell. The laser power measured under these conditions was 28.8 mW. Every 5 minutes the irradiation was interrupted and a new absorption spectrum was registered. This procedure was followed for 65 minutes. The photobleaching follows the kinetics of a first-order reaction in the time window of the experiment. […] Whereas the bacteriochlorin peak at 743 nm is reduced from an absorbance of 1.128 to 0.337, the absorption of the chlorin only increases from 0.114 to 0.151. Taking into consideration the molar absorption coefficients of the compounds at these wavelengths, it is clear that whereas 70% of the bacteriochlorin is destroyed during the irradiation, only a few percent of chlorin are formed.\nThe half-lives of other bacteriochlorins normalized 100 mW laser irradiation at 748 nm are presented in […], together with the literature data for the photodegradation of Foscan® and Tookad® normalized for the same light intensity. It was also observed that the half-live to Luzitin-Cl is increased by a factor of 30 when the PBS solution of the photosensitizer is saturated with Argon, which reduces the oxygen concentration in the solution."}, "[3]": {"system": "HT-29 (human colon carcinoma)", "assay": "Cytotoxicity in the dark, resazurin assay", "format": "cell-based", "conditions": "HT-29, dark", "protocol": "(§1) The cell lines employed in laser irradiation were the HT-29 (human colon carcinoma), PC-3 (human prostate carcinoma), SW2 (human small cell lung cancer), A-549 (human non-small cell lung cancer). S91/I3 (mouse melanoma) and CT26 (mouse colon carcinoma). They were used both for cytotoxicity and photocytotoxicity experiments. PC-3. SW2 and S91113 cells were cultured in RPMI-1640 medium (Sigma-Aldrich, Steinheim, Germany) and HT-29, A-549 and CT26 cells were cultured in Dulbecco's Modified Eagle Medium (DMEM) (Cambrex Bioscience, Verviers, Belgium). Both cell culture mediums were supplemented with 10% heat-inactivated Fetal Bovine Serum (FBS) (Cambrex Bioscience, Verviers, Belgium) and 100 IU/ml penicillin-100 μg/ml streptomycin (Cambrex Bioscience, Verviers, Belgium). The DMEM medium used for CT26 cells was also supplemented with HEPES 10 mM. Cell lines were maintained in 75 cm^2 flasks (Orange Scientific, Braine-l'Alleud, Belgium) at 37° C. in humidified atmosphere with 5% CO2. For the in vitro studies, cells at 85-90% confluence, were detached with Trypsin-Versene-EDTA solution (Cambrex Bioscience, Verviers, Belgium), counted and seeded in flat-bottom 96-well plates at the desired densities.\n(§2) Cell viability assay. In the end of the experiences cell viability was evaluated by the resazurin reduction assay. Briefly, resazurin (Sigma-Aldrich, Steinhelm, Germany) stock solution (0.1 mg/ml in phosphate buffer saline (PBS) pH 7.4) was diluted 10% in culture medium without FBS or antibiotics and 200 μl were added to the cells in each well. Plates were incubated for 3-4 h at 37° C. The absorbance values of each well were measured at 540 nm and 630 nm using a microplate reader Multiskan Ex (Thermo-Electron Corporation, Vartaa, Finland).\n(§3) Cytotoxicity. Cells were seeded in flat-bottom 96-well plates (Orange Scientific, Braine-l'Alleud, Belgium) in 100 μl of culture medium and were allowed to adhere overnight. The photosensitizer was added to the cells (diluted in 100 μl culture medium) at final concentrations between 0.01 and 1 mM. Each concentration was tested in quadruplicate. The incubation periods in the dark at 37° C. were two times the doubling time for the tested cell line. After the incubation the cell viability was evaluated. In parallel control experiments, cells were incubated without the drug. Cytotoxicity was quantified by expressing cell death relatively to untreated cells (% of control cells). The results were plotted as dose response curves (% of cell death as a function of the concentration of the DRUG), which allow the determination of the concentration that inhibit 50% of cell growth (IC50)."}, "[4]": {"system": "PC-3 (human prostate carcinoma)", "assay": "Cell photosensitization, 748 nm diode laser, resazurin", "format": "cell-based", "conditions": "for concentration of sensitizer required to kill 90% of cells (LD90): 6 J/cm^2 diode laser irradiation at 28.5 mW"}, "[5]": {"system": "PC-3 (human prostate carcinoma)", "assay": "Cytotoxicity in the dark, resazurin assay", "format": "cell-based", "protocol": "as §1, §2, §3"}, "S91/I3 (mouse melanoma)": {"system": "S91/I3 (mouse melanoma)", "assay": "Cytotoxicity in the dark, resazurin assay", "format": "cell-based", "conditions": "S91I3, incubation 40 h in the dark; read-out: IC50 dark toxicity", "protocol": "as §1, §2, §3"}, "[6]": {"system": "SW2 (human small cell lung cancer)", "assay": "Cytotoxicity in the dark, resazurin assay", "format": "cell-based", "conditions": "SW2, incubation 48 h in the dark; read-out: IC50 dark toxicity", "protocol": "as §1, §2, §3"}}, "data": [{"smiles": "CNS(=O)(=O)c1ccc(F)c(-c2c3nc(c(-c4cc(S(=O)(=O)NC)ccc4F)c4ccc([nH]4)c(-c4cc(S(=O)(=O)NC)ccc4F)c4nc(c(-c5cc(S(=O)(=O)NC)ccc5F)c5ccc2[nH]5)CC4)CC3)c1", "note": "[Luzitin-FMet, 5,10,15,20-tetrakis(2-fluoro-5-N-methylsulfamoylphenyl)bacteriochlorin]", "values": [{"measurement": "concentration of sensitizer required to kill 90% of cells (LD90)", "setting": "[1]", "value": 0.5, "unit": "µM"}, {"measurement": "bacteriochlorin destroyed during irradiation", "setting": "[2]; PBS:methanol (2:3), 748 nm, 28.8 mW, 65 minutes", "value": 70, "unit": "%"}, {"measurement": "t1/2 (photobleaching half-life)", "setting": "[2]; PBS:methanol", "value": 647, "unit": "s"}, {"measurement": "t1/2 (photobleaching half-life)", "setting": "[2]; methanol", "value": "3,553 sec"}, {"measurement": "highest concentration that causes relatively no effect in viability in the dark", "setting": "[3]", "value": 50, "unit": "µM"}, {"measurement": "concentration of sensitizer required to kill 90% of cells (LD90)", "setting": "[4]", "value": 0.5, "unit": "µM"}]}, {"smiles": "O=S(=O)(O)c1ccc(Cl)c(-c2c3nc(c(-c4c(Cl)ccc(S(=O)(=O)O)c4Cl)c4ccc([nH]4)c(-c4c(Cl)ccc(S(=O)(=O)O)c4Cl)c4nc(c(-c5c(Cl)ccc(S(=O)(=O)O)c5Cl)c5ccc2[nH]5)CC4)CC3)c1Cl", "note": "[Luzitin-Cl2, 5,10,15,20-tetrakis(2,6-dichloro-3-sulfonylphenyl)bacteriochlorin]", "values": [{"measurement": "t1/2 (photobleaching half-life)", "setting": "[2]; PBS", "value": 358, "unit": "s"}, {"measurement": "highest concentration that causes relatively no effect in viability in the dark", "setting": "[5]; PC-3, dark", "value": 0.05, "unit": "mM"}, {"measurement": "cell kill", "setting": "[4]; 20 μM, laser light dose 6 J/cm^2, incubation 24 hours", "value": 100, "unit": "%"}, {"measurement": "concentration of sensitizer required to kill 90% of cells (LD90)", "setting": "[4]", "value": 20, "unit": "µM"}]}, {"smiles": "CCNS(=O)(=O)c1ccc(Cl)c(-c2c3nc(c(-c4c(Cl)ccc(S(=O)(=O)NCC)c4Cl)c4ccc([nH]4)c(-c4c(Cl)ccc(S(=O)(=O)NCC)c4Cl)c4nc(c(-c5c(Cl)ccc(S(=O)(=O)NCC)c5Cl)c5ccc2[nH]5)CC4)CC3)c1Cl", "note": "[Luzitin-Cl2Et, 5,10,15,20-tetrakis(2,6-dichloro-3-N-ethylsulfamoylphenyl)bacteriochlorin]", "values": [{"measurement": "concentration of sensitizer required to kill 90% of cells (LD90)", "setting": "[1]", "value": 10, "unit": "µM"}, {"measurement": "t1/2 (photobleaching half-life)", "setting": "[2]; PBS:methanol", "value": "4,013 sec"}, {"measurement": "concentration of sensitizer required to kill 90% of cells (LD90)", "setting": "[4]", "value": 5, "unit": "µM"}]}, {"smiles": "O=S(=O)(O)c1ccc(Cl)c(-c2c3nc(c(-c4cc(S(=O)(=O)O)ccc4Cl)c4ccc([nH]4)c(-c4cc(S(=O)(=O)O)ccc4Cl)c4nc(c(-c5cc(S(=O)(=O)O)ccc5Cl)c5ccc2[nH]5)CC4)CC3)c1", "note": "[Luzitin-Cl, 5,10,15,20-tetrakis(2-chloro-5-sulfonylphenyl)bacteriochlorin]", "values": [{"measurement": "t1/2 (photobleaching half-life)", "setting": "[2]; PBS", "value": 174, "unit": "s"}, {"measurement": "IC50", "setting": "[5]; PC-3, incubation 72 h in the dark, read-out: IC50 dark toxicity", "value": 600, "unit": "µM"}, {"measurement": "IC50", "setting": "S91/I3 (mouse melanoma)", "value": 500, "unit": "µM"}, {"measurement": "IC50", "setting": "[6]", "value": 400, "unit": "µM"}]}]}
